Data published in ChEMBL document CHEMBL5523719, “Structure-activity relationship study of new carbazole sulfonamide derivatives as anticancer agents with dual-target mechanism” (Eur J Med Chem, 2024).
The source made the active and inactive calls. The calls are words filed in the database; no cut-off is given here.

Experiments:
[1] = Toxicity in BALB/c mouse xenografted with human MCF7 cells assessed as lesions in heart at 10 mg/kg, iv every other day for 26 days by H and E staining based assay; format: organism-based; settings: in vivo, 624 h, time 26 day
[2] = tested on: MCF7; test: In vivo antitumor activity against human MCF7 cells xenografted in BALB/c mouse assessed as increase in cleaved caspase-3 treated at 10 mg/kg, iv every other day for 26 days; format: functional, organism-based; settings: time 26.0 day
[3] = tested on: MIA PaCa-2; test: Antiproliferation activity against human MIA PaCa-2 cells measured after 72 hrs incubation by MTT assay; format: functional, cell-based; settings: MIA PaCa-2, 72 h
[4] = Toxicity in BALB/c mouse xenografted with human MCF7 cells assessed as lesions in liver at 10 mg/kg, iv every other day for 26 days by H and E staining based assay; format: organism-based; settings: in vivo, 624 h, time 26 day
[5] = Toxicity in BALB/c mouse xenografted with human MCF7 cells assessed as lesions in kidney at 10 mg/kg, iv every other day for 26 days by H and E staining based assay; format: organism-based; settings: in vivo, 624 h, time 26 day
[6] = tested on: L02; test: Antiproliferation activity against human L02 cells measured after 72 hrs incubation by MTT assay; format: functional, cell-based; settings: L02, 72 h
[7] = tested on: MCF7; test: In vivo antitumor activity against human MCF7 cells xenografted in BALB/c mouse assessed as inhibition of Ki-67 expression treated at 10 mg/kg, iv every other day for 26 days; format: functional, organism-based; settings: time 26.0 day
[8] = tested on: NCI-H460; test: Antiproliferation activity against human NCI-H460 cells measured after 72 hrs incubation by MTT assay; format: functional, cell-based; settings: NCI-H460, 72 h
[9] = Toxicity in BALB/c mouse xenografted with human MCF7 cells assessed as lesions in lung at 10 mg/kg, iv every other day for 26 days by H and E staining based assay; format: organism-based; settings: in vivo, 624 h, time 26 day
[10] = tested on: MCF7; test: In vivo antitumor activity against human MCF7 cells xenografted in BALB/c mouse assessed as inhibition of tumor growth treated iv every other day for 26 days; format: functional, organism-based; settings: time 26.0 day
[11] = tested on: MCF7; test: In vivo antitumor activity against human MCF7 cells xenografted in BALB/c mouse assessed as decrease in tumor volume treated at 10 mg/kg, iv every other day for 26 days relative to control; format: functional; settings: MCF7, 624 h, time 26 day
[12] = tested on: KB; test: Antiproliferation activity against human KB cells measured after 72 hrs incubation by MTT assay; format: functional, cell-based
[13] = Toxicity in BALB/c mouse xenografted with human MCF7 cells assessed as lesions in spleen at 10 mg/kg, iv every other day for 26 days by H and E staining based assay; format: organism-based; settings: in vivo, 624 h, time 26 day
[14] = tested on: MCF7; test: In vivo antitumor activity against human MCF7 cells xenografted in BALB/c mouse assessed as decrease in tumor volume treated at 5 mg/kg, iv every other day for 26 days relative to control; format: functional; settings: MCF7, 624 h, time 26 day
[15] = tested on: MDA-MB-231; test: Antiproliferation activity against human MDA-MB-231 cells measured after 72 hrs incubation by MTT assay; format: functional, cell-based; settings: MDA-MB-231, 72 h
[16] = tested on: MCF7; test: In vivo antitumor activity against human MCF7 cells xenografted in BALB/c mouse assessed as increase in cleaved caspase-3 treated at 5 mg/kg, iv every other day for 26 days; format: functional, organism-based; settings: time 26.0 day
[17] = Toxicity in BALB/c mouse xenografted with human MCF7 cells assessed as lesions in kidney at 5 mg/kg, iv every other day for 26 days by H and E staining based assay; format: organism-based; settings: in vivo, 624 h, time 26 day
[18] = tested on: MCF7; test: In vivo antitumor activity against human MCF7 cells xenografted in BALB/c mouse assessed as inhibition of Ki-67 expression treated at 5 mg/kg, iv every other day for 26 days; format: functional, organism-based; settings: time 26.0 day
[19] = Toxicity in BALB/c mouse xenografted with human MCF7 cells assessed as lesions in liver at 5 mg/kg, iv every other day for 26 days by H and E staining based assay; format: organism-based; settings: in vivo, 624 h, time 26 day
[20] = Toxicity in BALB/c mouse xenografted with human MCF7 cells assessed as lesions in heart at 5 mg/kg, iv every other day for 26 days by H and E staining based assay; format: organism-based; settings: in vivo, 624 h, time 26 day
[21] = tested on: MCF7; test: In vivo antitumor activity against human MCF7 cells xenografted in BALB/c mouse assessed as decrease in tumor volume treated at 2.5 mg/kg, iv every other day for 26 days relative to control; format: functional; settings: MCF7, 624 h, time 26 day
[22] = Toxicity in BALB/c mouse xenografted with human MCF7 cells assessed as lesions in spleen at 5 mg/kg, iv every other day for 26 days by H and E staining based assay; format: organism-based; settings: in vivo, 624 h, time 26 day
[23] = Toxicity in BALB/c mouse xenografted with human MCF7 cells assessed as lesions in lung at 5 mg/kg, iv every other day for 26 days by H and E staining based assay; format: organism-based; settings: in vivo, 624 h, time 26 day

COc1cc(NS(=O)(=O)c2ccc3c(c2)c2ccc(OP(=O)([O-])[O-])cc2n3C)c(OC)cc1Cl.[Na+].[Na+]
Activity [1]: Non-Toxic
Activity [2]: Active
IC50 [3]: 14.4 nM
Activity [4]: Non-Toxic
Activity [5]: Non-Toxic
IC50 [6]: 55.3 nM
Activity [7]: Active
IC50 [8]: 18.5 nM
Activity [9]: Non-Toxic
TGI [10]: Dose-Dependent Effect
inhibition in vivo at 10 mg/kg [11]: 73%
IC50 [12]: 36.1 nM
Activity [13]: Non-Toxic
inhibition in vivo at 5 mg/kg [14]: 56%
IC50 [15]: 5.72 nM

COc1cc(NS(=O)(=O)c2ccc3c(c2)c2ccc(NC(=O)[C@@H](N)C(C)C)cc2n3C)c(OC)cc1Cl.Cl
Activity [16]: Active
Activity [17]: Non-Toxic
Activity [18]: Active
IC50 [3]: 72.1 nM
Activity [19]: Non-Toxic
Activity [20]: Non-Toxic
IC50 [6]: 43.2 nM
inhibition in vivo at 2.5 mg/kg [21]: 38%
Activity [22]: Non-Toxic
IC50 [8]: 41.6 nM
Activity [23]: Non-Toxic
TGI [10]: Dose-Dependent Effect
IC50 [12]: 23 nM
inhibition in vivo at 5 mg/kg [14]: 66%
IC50 [15]: 102 nM
